Experimental data taken from patent publication US8846657B2, “Substituted imidazopyridines as HDM2 inhibitors” (Merck Sharp & Dohme Corp., priority 2012, dated 2014).

The molecules below were run against HDM2 (Homo sapiens (Human), UniProt Q00987) (assay: HDM2 FRET assay (inhibition of p53 peptide binding to HDM2)). Settings: read-out: FRET IC50.
HDM2, sequence (Q00987 17-125): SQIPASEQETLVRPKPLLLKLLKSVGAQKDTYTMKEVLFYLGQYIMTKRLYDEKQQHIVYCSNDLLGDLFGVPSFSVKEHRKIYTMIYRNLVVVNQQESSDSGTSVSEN
Text: Methods: An HDM2 FRET assay was developed to assess the compounds' inhibitory activity towards binding of p53 protein. […] Ratio of em520/em495 was used to calculate % inhibition and to obtain IC50 with 4-parameter logistic equation.
Concentration of compound was plotted against em520/Cem495 ratio signal. To generate IC50 values, the dose-response curves were fitted to a standard sigmoidal curve and IC50 values were derived by nonlinear regression analysis.

SMILES	IC50 [nM]
C[C@H]1CC[C@H](Cn2c(N3CCC[C@H]3C(F)(F)F)nc3cc(-c4nnn[nH]4)nc(-c4cncc(Cl)c4)c32)CC1 [Example 14.1, 4-(5-chloropyridin-3-yl)-3-[(trans-4-methylcyclohexyl)methyl]-6-(1H-tetrazol-5-yl)-2-[(2S)-2-(trifluoromethyl)pyrrolidin-1-yl]-3H-imidazo[4,5-c]pyridine]	< 1
C[C@H]1CC[C@H](Cn2c(N3CCO[C@@H]4CCC[C@H]43)nc3cc(-c4nnn[nH]4)nc(-c4cncc(Cl)c4)c32)CC1 [Example 14.4, 4-(5-chloropyridin-3-yl)-2-[(4aR,7aR)-hexahydrocyclopenta[b][1,4]oxazin-4(4aH)-yl]-3-[(trans-4-methylcyclohexyl)methyl]-6-(1H-tetrazol-5-yl)-3H-imidazo[4,5-c]pyridine]	< 1

Same assay, conditions: read-out: FRET IC50; 0.5 nM HDM2 (residues 17-125), 3 nM FITC peptide, 2 h at room temperature; values rounded to the nearest integer

SMILES	IC50 [nM]
C[C@H]1CC[C@H](Cn2c(N3CCC[C@H]3c3nccs3)nc3cc(-c4noc(=O)[nH]4)nc(-c4cncc(Cl)c4)c32)CC1 [Example 3.81, 3-{4-(5-chloropyridin-3-yl)-3-[(trans-4-methylcyclohex-yl)methyl]-2-[(2S)-2-(1,3-thiazol-2-yl)pyrrolidin-1-yl]-3H-imidazo[4,5-c]pyridin-6-yl}-1,2,4-oxadiazol-5(4H)-one]	< 1
CO[C@@H]1C[C@@H](C(C)C)N(c2nc3cc(-c4noc(=O)[nH]4)nc(-c4cncc(Cl)c4)c3n2C[C@H]2CC[C@H](C)CC2)C1 [Example 3.90, 3-{4-(5-chloropyridin-3-yl)-2-[(2S,4R)-4-methoxy-2-(propan-2-yl)pyrrolidin-1-yl]-3-[(trans-4-methylcyclohexyl)methyl]-3H-imidazo[4,5-d]pyridin-6-yl}-1,2,4-oxadiazol-5(4H)-one]	< 1
C[C@H]1CC[C@H](Cn2c(N3CCOC[C@H]3c3ccccc3)nc3cc(-c4noc(=O)[nH]4)nc(-c4cncc(Cl)c4)c32)CC1 [Example 2.1, 3-{4-(5-chloropyridin-3-yl)-3-[(trans-4-methylcyclohexyl)methyl]-2-[(3R)-3-phenylmorpholin-4-yl]-3H-imidazo[4,5-c]pyridin-6-yl}-1,2,4-oxadiazol-5(4H)-one]	< 1
COCCO[C@@H]1C[C@@H](C(C)C)N(c2nc3cc(-c4noc(=O)[nH]4)nc(-c4cncc(Cl)c4)c3n2C[C@H]2CC[C@H](C)CC2)C1 [Example 3.144, 3-{4-(5-chloropyridin-3-yl)-2-[(2S,4R)-4-(2-methoxyethoxy)-2-(1-methylethyl)-pyrrolidin-1-yl]-3-[(trans-4-methylcyclohex-yl)methyl]-3H-imidazo[4,5-c]pyridin-6-yl}-1,2,4-oxadiazol-5(4H)-one]	< 1
